Data set [1] is described as follows: Particle size distribution, MALVERN MASTERSIZER 3000, Hydro MV wet dispersion (wet analysis). The format is physicochemical. To be noted: wet analysis method; starting material before milling. As to the method:
The particle size distribution for the micronized glycopyrrolate formulations was determined by MALVERN MASTERSIZER® 3000 using the Hydro MV wet dispersion unit as follows: the dispersion unit was filled with iso-octane (2,2,4-trimethylpentane). The pump speed was set to 3000 rpm. Ten millilitres of 0.1% lecithin in iso-octane was added to approximately 10 mg of the micronized glycopyrrolate formulation, this pre-dispersion was then sonicated for 3 minutes using a Sonopuls sonic probe at 50% intensity. The dispersed particles were added to the dispersion unit to reach an obscuration of 5-15%. The optical properties used included a refractive index of 1.52 and an absorption value of 1.0 for the glycopyrrolate, and a refractive index of 1.45 and an absorption value of 1.0 for the magnesium stearate and a refractive index of 1.391 for the iso-octane. Six replicates were performed per measurement.

Data set [2] is described as follows: Particle size distribution, MALVERN MASTERSIZER 3000, Aero S dry dispersion method at 4 Bar. The format is physicochemical. To be noted: unmicronised source powder. As to the method:
The particle size distribution for unmicronised glycopyrrolate was determined by MALVERN MASTERSIZER analysis (MALVERN MASTERSIZER® 3000, using the Aero S dry dispersion method at 4 Bar) and found to be D10=11.3 μm, D50=98.0 μm, D90=281 μm (see FIG. 1).
The particle size distributions for Formulation 1 (D10=0.283 μm, D50=1.66 μm, D90=5.40 μm) and Formulation 2 (D10=0.270 μm, D50=1.41 μm, D90=3.66 μm were determined by MALVERN MASTERSIZER® analysis (MALVERN MASTERSIZER® 3000, using the Aero S dry dispersion method at 4 Bar). These are reported in FIGS. 4 and 8 respectively and Table 1 below.
The particle size distribution for the micronized glycopyrrolate formulations was determined by MALVERN MASTERSIZER® analysis (MALVERN MASTERSIZER® 3000, using the Aero S dry dispersion method at 4 Bar and a feed rate of between 30-40%). The optical properties used included a refractive index of 1.52 and an absorption value of 1.0.

With magnesium stearate, in data set [1], the D10 was 2.8 μm, the D50 came out at 8.8 μm and the D90 is recorded as 27.4 μm.

In data set [1], `C[N+]1(C)CCC(OC(=O)C(O)(c2ccccc2)C2CCCC2)C1` (stereo not shown) [unmicronised glycopyrrolate, glycopyrrolate] returned a D10 of 20.6 μm, a D50 of 148.7 μm and a D90 of 409.7 μm. In data set [2], this compound returned a D10 of 11.3 μm, a D50 of 98.0 μm and a D90 of 281 μm. In addition, the “cumulative fraction under 5 μm” value in data set [2] (stored sealed) is 4.68%.
